# Assay results as given in patent publication US20230192895A1, “PHARMACOKINETIC & PHARMACODYNAMIC MODEL FOR DETERMINING EFFECTIVE DOSE OF ANTI-TICAGRELOR ANTIBODY” (PhaseBio Pharmaceuticals, Inc., priority 2021, published 2023).
# B1: PB2452: recombinant human IgG1λ monoclonal Fab antibody fragment that binds specifically to ticagrelor and TAM (antibody, listed as Homo sapiens)
# heavy: QVQLQESGAEVKKPGSSVRVSCKASGGTFDSYSIHWVRQAPGQGLEWMGGIIPAFGTLSSAQDFQARVTISADKSTSTAYMELSGLRSEDTAVYYCARGSFDYYFWSASHPPNDALAIWGQGTLVTVSSASTKGPSVFPLAPSSKSTSGGTAALGCLVKDYFPEPVTVSWNSGALTSGVHTFPAVLQSSGLYSLSSVVTVPSSSLGTQTYICNVNHKPSNTKVDKRVEPKSCDK
# light: QSVVTQPPSVSAAPGQKVTISCSGSNSDIGNNYVSWYQQLPGTAPKLLIYDNNKRPSGIPDRFSGSKSGTSATLAITGLQAGDEADYYCGTWLYDRAVGLFGGGTKVTVLGQPKAAPSVTLFPPSSEELQANKATLVCLISDFYPGAVTVAWKADSSPVKAGVETTTPSKQSNNKYAASSYLSLTPEQWKSHRSYSCQVTHEGSTVEKTVAPTECS
# modifications: PB2452 VH with CH1; PB2452 VL with CL
# Assays:
# [1] = test system: PB2452 binding to biotinylated ticagrelor; experiment: Selectivity of PB2452 by competition binding with PB2452 to biotinylated ticagrelor; parameters: species or system human
# Source text: The chemical starting point for the development of ticagrelor was adenosine triphosphate (ATP), and ticagrelor retains an adenosine-like core.
# [2] = test system: P2Y12 reactivity units (PRU); experiment: animal or person
# Source text: where Base refers to the baseline (prior to administration of Ticagrelor) value. Emaxi, EC50i, and the Hill coefficient (γ) are parameters to be estimated. The same structural model was used for PRU, VASP, and LTA.
# The Emax parameter relating TICA to PRU (as well as VASP and LTA) was fixed to 90%. […] It is anticipated that this parameter value would be large^13 so it was fixed at a large value. […] This value was chosen based on literature^9, 14. Finally, fm was set equal to 0.30.
# For parameters that were to be estimated, most of the prior distributions were uninformative or weakly informative.
# [3] = Final population PK/PD model: PK parameters of TICA, TAM, PB2452 and complexes; assay type: in vivo, human
# Procedure: A diagram of the model considered is in FIG. 1. Ticagrelor is dosed orally and passes through 2 transit compartments prior to entering the central compartment. […] PB2452 is dosed IV, and directly enters the central compartment. PB2452 can also diffuse into a peripheral compartment. […] In the model, it is assumed that the complexes are cleared at the same rate as PB2452. Additional compartments for the complex to enter where TICA and TAM return to circulation while PB2452 is removed from the system is also included in the model.
# The expected result would be an increase in PRI/LTA/VASP to baseline (pre-ticagrelor administration) levels. Baseline PRU/LTA/VASP were added in the models observed value from the data for each subject. An ETA term was added to allow for potential measurement error. […] Astrand et al. (2019).
# (§1) The PK parameters associated with this model are in Table 2. […] In the PK/PD model, the parameters associated with the PK of PB2452 (that are not associated with the relationship between PB2452/TICA/TAM) were fixed to these values.
# (§2) To achieve improved fit to the study data, multiple adjustments were made to the model. […] These updates led to significant improvements in the fit of the model to the data.
# The final step in model development was addition of significant covariates. […] Based on the covariate plots for the final model with the covariates included, no other covariates were added.
# [4] = test system: P2Y12 reactivity units (PRU); conditions: fixed in model, not estimated; cited from earlier work
# [5] = Population PK model of PB2452 alone (two-compartment, Cohorts 1-3); assay type: in vivo, human
# Procedure: Population PK and PK/PD analyses were carried out using NONMEM version 7.4, PDx-Pop version 5.2 and Intel Visual Fortran Compiler version 12 on Microsoft Windows 10 Professional.
# The models described in the following sections are non-linear hierarchical models that were fit using Bayesian Markov Chain Monte-Carlo (MCMC) techniques. If θ and φj represent vectors of individual PK and PD parameters, respectively, then it was assumed that they follow distributions with population parameters Θ and Φ, respectively. The parameters Θ and Φ were then assigned prior distributions according to the prior information available. The Bayesian analysis involved the estimation of the joint distribution of all parameters conditional on the observed data: p(θ, φ, Θ, Φ|PK and PD data), where θ and φ denote collections of all individual specific PK and PD parameters, respectively. Generating random samples from the joint posterior distribution allows the marginal distribution of each parameter to be completely characterized. More details on Bayesian methods in general may be found in (Lunn, Best, Thomas, Wakefield, & Spiegelhalter, 2002).
# The MU referencing technique was utilized in NONMEM (Bauer, 2019). In particular, MU_1 (for example) was set equal to THETA(1). Then a particular model parameter was set equal to EXP(MU_1+ETA(1)). So, THETA represents the population value of the parameter on the log-scale. This usually helps to improve the efficiency (speed of convergence, reduced autocorrelation) of the algorithms (MCMC, but also applies to other “advanced” algorithms available) utilized.
# as §1
# [6] = test system: P2Y12 receptor-induced platelet aggregation and P2Y12 receptor signaling; experiment: Phase 1 trial: reversal of the antiplatelet effects of ticagrelor (PRU/LTA/VASP); assay type: in vivo, human
# Procedure: This model was developed during the conduct of the first-in-human study and used to inform dosing decisions throughout the study. The model was then updated with final data from the trial and will be used to inform subsequent early-phase clinical trials being conducted.
# The study had 10 cohorts of healthy volunteers.
# Subjects in Cohorts 4-10 were pretreated with ticagrelor for 48 hours. The first dose of ticagrelor was an oral loading dose of 180 mg followed by 90 mg administered orally twice daily for 2 days.
# [7] = read-out: Kd (affinity of PB2452 for TICA and TAM); fixed in model, chosen based on literature; cited from earlier work
# [8] = test system: metabolism of TICA to TAM; experiment: Final population PK/PD model: metabolism of TICA as a function of PB2452 concentration; assay type: in vivo, human; conditions: value is natural log of Emaxf
# Source text: as §2
# [9] = 6 g IV bolus, then 6 g over 4 h, then 6 g over 12 h, study subjects pretreated with ticagrelor
# [10] = cohorts 4, 5 and 6 (1, 3, 9 g PB2452 over 30 minutes)
molecule,measurement,setting,value
O=C1CCc2cc(OCCCCc3nnnn3C3CCCCC3)ccc2N1 [cilostazol],Inhibition of PB2452 binding to biotinylated ticagrelor,[1],No inhibition
"Nc1ncnc2c1ncn2[C@@H]1O[C@H](COP(=O)(O)OP(=O)(O)O)[C@@H](O)[C@H]1O [ADP, adenosine diphosphate]",Inhibition of PB2452 binding to biotinylated ticagrelor,[1],No inhibition
"Nc1ncnc2c1ncn2[C@@H]1O[C@H](COP(=O)(O)OP(=O)(O)OP(=O)(O)O)[C@@H](O)[C@H]1O [ATP, adenosine triphosphate]",Inhibition of PB2452 binding to biotinylated ticagrelor,[1],No inhibition
CC1(C)C(C=C(Cl)Cl)C1C(=O)OC(C#N)c1ccc(F)c(Oc2ccccc2)c1 (stereo not shown) [cyfluthrin],Inhibition of PB2452 binding to biotinylated ticagrelor,[1],No inhibition
CC(=O)NC[C@H]1CN(c2ccc(N3CCOCC3)c(F)c2)C(=O)O1 [linezolid],Inhibition of PB2452 binding to biotinylated ticagrelor,[1],No inhibition
CCCC(=O)Nc1ncnc2c1ncn2[C@@H]1O[C@@H]2COP(=O)(O)O[C@H]2[C@H]1OC(=O)CCC [bucladesine],Inhibition of PB2452 binding to biotinylated ticagrelor,[1],No inhibition
COC(=O)C1=C(C#N)NC(C)=C(C(=O)OC(C)C)C1c1cccc([N+](=O)[O-])c1 (stereo not shown) [nilvadipine],Inhibition of PB2452 binding to biotinylated ticagrelor,[1],No inhibition
CNC(=O)c1cnn(-c2nc(N)c3ncn([C@@H]4O[C@H](CO)[C@@H](O)[C@H]4O)c3n2)c1 [regadenoson],Inhibition of PB2452 binding to biotinylated ticagrelor,[1],No inhibition
NS(=O)(=O)c1cc2c(cc1Cl)NC(C1CC3C=CC1C3)NS2(=O)=O (stereo not shown) [cyclothiazide],Inhibition of PB2452 binding to biotinylated ticagrelor,[1],No inhibition
CSCCNc1nc(SCCC(F)(F)F)nc2c1ncn2[C@@H]1O[C@H](COP(=O)(O)OP(=O)(O)C(Cl)(Cl)P(=O)(O)O)[C@@H](O)[C@H]1O [cangrelor],Inhibition of PB2452 binding to biotinylated ticagrelor,[1],No inhibition
"CCCSc1nc(N[C@@H]2C[C@H]2c2ccc(F)c(F)c2)c2nnn([C@@H]3C[C@H](OCCO)[C@@H](O)[C@H]3O)c2n1 [TICA, (1S,2S,3R,5S)-3-[7-{[(1R,2S)-2-(3,4-difluorophenyl)cyclopropyl]amino}-5-(propylthio)-3H-[1,2,3]triazolo[4,5-d]pyrimidin-3-yl]-5-(2-ydroxyethoxy)cyclopentane-1,2-diol]",EC50,"[2]; Homo sapiens, read-out: EC50 (Emax model relating uncomplexed analyte to PD measure)",> 20000 nM
same,"THETA1 final estimate; EC50 (nmol/L) = EXP(THETA1), EC50 for relating TICA to PRU",[2]; value is natural log of EC50 in nmol/L,10.6
same,Range of uncomplexed TICA expected based on the model,[3]; model-based concentration,less than 2000 nmol/L
same,Metabolism for TICA to TAM corresponding to fm,[3]; when no PB2452 is present,about 23%
same,Emax parameter relating TICA to PRU (as well as VASP and LTA),[4],90%
CC[C@H](C)C(=O)O[C@H]1C[C@@H](C)C=C2C=C[C@H](C)[C@H](CC[C@@H]3C[C@@H](O)CC(=O)O3)[C@H]21 [lovastatin],Inhibition of PB2452 binding to biotinylated ticagrelor,[1],No inhibition
Nc1ncnc2c1ncn2[C@@H]1O[C@H](CO)[C@@H](O)[C@H]1O [adenosine],Inhibition of PB2452 binding to biotinylated ticagrelor,[1],No inhibition
CCCSc1nc(N[C@@H]2C[C@H]2c2ccc(F)c(F)c2)c2nnn([C@@H]3C[C@H](O)[C@@H](O)[C@H]3O)c2n1 [TAM],"THETA9 final estimate; Emax2 = EXP(THETA9), Emax for relating TAM to PRU",[2]; value is natural log of Emax2,0.0181
B1,Central volume of distribution,"[5]; IV, Cohorts 1-3",2.86 L
same,Clearance,"[5]; IV, Cohorts 1-3",1.88 L/h
same,Half-life for the distribution phase,"[5]; IV, Cohorts 1-3",0.81 h
same,Half-life for the elimination phase,"[5]; IV, Cohorts 1-3",6.68 h
same,THETA3 final estimate; Q (L/hr) = EXP(THETA3),[5]; value is natural log of Q in L/hr,−0.770
same,THETA2 final estimate; V1 (L) = EXP(THETA2),[5]; value is natural log of V1 in L,1.05
same,THETA4 final estimate; V2 (L) = EXP(THETA4),[5]; value is natural log of V2 in L,1.24
same,Time for which complete reversal was sustained,[6]; [9],20 to 24 h
same,Time from infusion onset to complete reversal of the antiplatelet effects of ticagrelor,[6]; [9],≤ 5 min
same,Effect of higher dose and prolonged infusion on PRU,"[6]; cohort 7 and those that followed (18 g, bolus plus prolonged infusion)",prolonged the increase in PRU
same,Effect on PRU after cessation of infusion,"[6]; cohort 7 and those that followed, despite dose escalation",unexpected loss of effect was observed post-cessation of the drug infusion
same,Duration of early effect on PRU before return to post-TICA levels,[6]; [10],less than two
same,Early effect on PRU,[6]; [10],the PRU values were increased close to values before TICA was administered
same,Kd,[7],0.018 nM
same,THETA4 final estimate; Ktr (hr^−1) = EXP(THETA4 + THETA13*(LOG(WT) − 4.35)),"[3]; value is natural log of Ktr, rate at which PB2452-TICA and PB2452-TAM complexes move through the added compartments",−1.22
same,"THETA6 final estimate; Emaxf = EXP(THETA6), Emax for relating metabolism of TICA to PB2452 concentrations",[8],2.98
